What was measured:
Format in all cases: cell-based, human
[1] = test system: foreskin cells in which senescence was induced by doxorubicin; experiment: CellTiter-Glo cell viability of doxorubicin-induced senescent foreskin cells (Examples 1-2, 10, 11, 13; Tables 4, 63, 65); conditions: Homo sapiens, 72 h, doxorubicin-induced senescent foreskin cells, CellTiter-Glo, 0 μM = 100, read-out: Survival (%); for viability at 1.1 µM: 1.1 μM test compound; for viability at 10 µM: 10 μM test compound; for viability at 30 µM: 30 μM test compound; for viability at […]: […] test compound; for viability at 90 µM: 90 μM test compound
Experimental: After 3 days, cell viability was measured using CellTiter-Glo Luminescent Cell Viability Assay (Promega) or light microscopy.

HMGN1 [2] = experiment: HMGN1 ELISA in culture medium of foreskin cells (Examples 10, 11; Tables 62, 63, 64); conditions: Homo sapiens, doxorubicin-treated foreskin cells, DMSO = 100; for activity at 30 µM: 30 μM test compound, read-out: HMGN1; for activity at 90 µM: 90 μM test compound
HMGN1 [3] = experiment: HMGN1 ELISA in culture medium of A549 cancer cells (Example 12, Table 66); conditions: Homo sapiens, A549, doxorubicin-induced senescent A549 cells, ELISA, DMSO = 100, read-out: HMGN1 (amount of HMGN1 secreted in the cell culture); for activity at 90 µM: test compound 90 μM; for activity at 30 µM: test compound 30 μM; for activity at 270 µM: test compound 270 μM
A549 = experiment: CellTiter-Glo cell viability of senescent A549 cancer cells (Example 12, Table 67); conditions: Homo sapiens, A549, doxorubicin-induced senescent A549 cancer cells, CellTiter-Glo, read-out: Survival (%); for viability at 1.1 µM: 1.1 μM test compound; for viability at 10 µM: 10 μM test compound; for viability at 30 µM: 30 μM test compound; for viability at 90 µM: 90 μM test compound; for viability at 270 µM: 270 μM test compound

| SMILES | viability at 1.1 µM [1] [%] | viability at 10 µM [1] [%] | viability at 30 µM [1] [%] | viability at […] [1] [%] | activity at 30 µM (HMGN1 [2]) [%] | activity at 90 µM (HMGN1 [3]) [%] | viability at 1.1 µM (A549) [%] | viability at 10 µM (A549) [%] | viability at 30 µM (A549) [%] | viability at 90 µM (A549) [%] | activity at 30 µM (HMGN1 [3]) [%] | viability at 90 µM [1] [%] | activity at 90 µM (HMGN1 [2]) [%] | activity at 270 µM (HMGN1 [3]) [%] | viability at 270 µM (A549) [%] | viability at 270 µM ([1]; 270 μM test compound) [%] | activity at 270 µM (HMGN1 [2]; 270 μM test compound) [%] |
| --- | --- | --- | --- | --- | --- | --- | --- | --- | --- | --- | --- | --- | --- | --- | --- | --- | --- |
| C=C(CN(C)C)C(=O)c1ccc(C)cc1C [LX-923] | 97.7 | 75.7 | 19.5 | 94.5 | 271 | 219 | 96.7 | 89.4 | 81.7 | 15.7 | – | – | – | – | – | – | – |
| Cc1noc([C@]23CCC(C)(C)C[C@H]2[C@H]2C(=O)C=C4[C@@]5(C)C=C(C#N)C(=O)C(C)(C)[C@@H]5CC[C@@]4(C)[C@]2(C)CC3)n1 [LX-2401] | 46.4 | – | – | 6.8 | 303 | – | 108 | 15.9 | – | – | 284 | – | – | – | – | – | – |
| C=CC(=O)N1CCC([C@@H]2CCNc3c(C(N)=O)c(-c4ccc(Oc5ccccc5)cc4)nn32)CC1 [LX-3309, Zanubrutinib, reference compound] | 99.3 | 36.9 | – | 87.1 | 293 | – | 104 | 49.6 | 35.2 | – | 247 | – | – | – | – | – | – |
| COC(=O)N[C@]12CCC(C)(C)C[C@H]1[C@H]1C(=O)C=C3[C@@]4(C)C=C(C#N)C(=O)C(C)(C)[C@@H]4CC[C@@]3(C)[C@]1(C)CC2 [LX-2305] | 19.6 | – | – | – | 292 | – | 33.6 | – | – | – | 269 | – | – | – | – | – | – |
| C[C@@H]1C(=O)C(C#N)=C[C@]2(c3ccccc3)c3c(c(-c4cccnc4)nn3C)CC[C@@H]12 [LX-2407, (5aS,6S,9aR)-1,6-dimethyl-7-oxo-9a-phenyl-3-(pyridin-3-yl)-4,5,5a,6,7,9a-hexahydro-1H-benzo[g]indazole-8-carbonitrile] | 15.4 | – | – | 5.9 | 308 | – | 89.6 | 41.8 | – | – | 316 | – | – | – | – | – | – |
| C[C@@H]1[C@H]2[C@H]3C(=O)C=C4[C@@]5(C)C=C(C#N)C(=O)C(C)(C)[C@@H]5CC[C@@]4(C)[C@]3(C)CC[C@@]2(CO)CC[C@H]1C [LX-2512] | 38.2 | – | – | 3.2 | 276 | – | 88.5 | 11.7 | – | – | 274 | – | – | – | – | – | – |
| C=C(C)[C@@H]1CC[C@]2(C(=O)O)CC[C@]3(C)[C@H](CC[C@@H]4[C@@]5(C)CC[C@H](O)C(C)(C)[C@@H]5CC[C@]43C)[C@@H]12 [LX-2005, Betulinic acid] | 97.5 | 87.2 | 73.8 | 93.3 | – | – | 102 | 95.7 | 82.9 | 57.2 | – | 31.5 | 212 | 252 | 5.3 | – | – |
| COC(=O)c1ccc([C@H]2c3ccc(OC)cc3C[C@H](C(=O)OC)N2C(=O)CCl)cc1 [LX-416] | 70.3 | – | – | 29.1 | 293 | – | 91.4 | – | – | – | 315 | – | – | – | – | – | – |
| C[C@@H]1C(=O)C(C#N)=C[C@]2(C)C3=CC(=O)[C@@H]4[C@@H]5CC(C)(C)CC[C@]5(c5nnc(CF)o5)CC[C@@]4(C)[C@]3(C)CC[C@@H]12 [LX-2507] | 46.6 | – | – | 38.6 | 267 | – | 97.5 | 35.7 | – | – | 248 | – | – | – | – | – | – |
| Cc1cc(-c2ccc(-n3nc(-c4ccccc4F)c4c3[C@]3(C)C=C(C#N)C(=O)[C@H](C)[C@H]3CC4)cc2)cnn1 [LX-2506] | 91 | – | – | 11.8 | 279 | – | 98.3 | 26.4 | – | – | 267 | – | – | – | – | – | – |
| O=C(C(C[N+](=O)[O-])=NO)N1CCN(C(c2ccc(Cl)cc2)c2ccc(Cl)cc2)CC1 [LX-403] | 36.9 | 6.5 | – | 15.5 | 275 | – | 40.2 | 3.5 | – | – | 320 | – | – | – | – | – | – |
| CCn1c2ccccc2c2cc(CNC)ccc21 [LX-901] | 99.5 | 67.5 | 15.8 | 98.4 | 257 | 255 | 97.8 | 82.7 | 34.8 | 11.7 | – | – | – | – | – | – | – |
| CCCCS(=N)(=O)CCC(N)C(=O)O (stereo not shown) [LX-2805, Buthionine sulfoximine] | 99.4 | 92 | 84.2 | 97.3 | – | – | 105 | 96.7 | 82.9 | 73.3 | – | 82 | – | 158 | 49.3 | 51.1 | 182 |
| C=CC(=O)Nc1cccc(Oc2nc(Nc3ccc(N4CCN(C)CC4)cc3)nc3ccoc23)c1 [LX-2902, Poseltinib, reference compound] | 1.9 | – | – | – | 297 | – | 95.7 | 72.4 | 31.2 | – | 271 | – | – | – | – | – | – |
| Cc1ccc(-c2c(C#N)c(N)n3c(nc4ccccc43)c2C#N)cc1 [LX-1101] | 108 | 47.1 | 22.8 | 112 | 268 | 183 | 95.4 | 92.7 | 88.3 | 23.7 | – | – | – | – | – | – | – |
| CCCCS[C@@H]1O[C@@H]2O[C@@]3(C)CCC4[C@H](C)CCC([C@H]1C)[C@]42OO3 (stereo partly shown) [LX-503] | 25.1 | – | – | – | 284 | – | 34.4 | – | – | – | 333 | – | – | – | – | – | – |
| CNC(=O)CC[C@]12CCC(C)(C)C[C@H]1[C@H]1C(=O)C=C3[C@@]4(C)C=C(C#N)C(=O)C(C)(C)[C@@H]4CC[C@@]3(C)[C@]1(C)CC2 [LX-2403] | 38.1 | – | – | 15.2 | 319 | – | 100 | 3.2 | – | – | 267 | – | – | – | – | – | – |
| C[C@H](CN1CCCC1)C(=O)c1ccc(C(F)(F)F)cc1 [LX-1402, Lanperisone, reference compound] | 101 | 15.6 | 2.1 | 97.6 | 304 | – | 97.6 | 81.1 | 29.5 | – | 248 | – | – | – | – | – | – |
| O=C(O)c1cc(/N=N/c2ccc(S(=O)(=O)Nc3ccccn3)cc2)ccc1O [LX-1302, Sulfasalazine, reference compound] | 102 | 92.2 | 79.6 | 105 | – | 147 | 95.5 | 102 | 102 | 69.6 | – | 52.4 | 171 | – | 19.8 | – | – |
| CCc1nc(C(N)=O)c(Nc2ccc(N3CCC(N4CCN(C)CC4)CC3)c(OC)c2)nc1NC1CCOCC1 [LX-3303, Gilteritinib, reference compound] | 83.9 | 13.9 | – | 69.4 | 275 | – | 101 | 53.8 | 11.7 | – | 239 | – | – | – | – | – | – |
| C#CCOc1ccc2[nH]c3c(c2c1)C[C@H](C(=O)OC)N(C(=O)CCl)[C@H]3c1ccc(C(=O)NC23CC4CC(CC(C4)C2)C3)cc1 [LX-415] | 0.4 | – | – | – | 295 | – | 15.6 | – | – | – | 297 | – | – | – | – | – | – |
| COc1cc2c(Nc3ccc(Br)cc3F)ncnc2cc1OCC1CCN(C)CC1 [LX-3302, Vandetanib, reference compound] | 99.3 | 6.7 | – | 51.9 | 268 | – | 99.5 | 67.9 | 16.4 | – | 232 | – | – | – | – | – | – |
